In ChEMBL document CHEMBL5446079, “Affinity Biochemical Literature for EUbOPEN Chemogenomic Library” (2024):
Blank lines part the entries; values can stand above or below the molecule they belong to.

Experiments:
CDK8/Cyclin C = CDK8/Cyclin C (Homo sapiens, UniProt P49336); type: protein-complex assay
[1] = target: T1, Bromodomain-containing protein 1 (Homo sapiens, UniProt O95696)
T1 sequence (O95696 whole entry): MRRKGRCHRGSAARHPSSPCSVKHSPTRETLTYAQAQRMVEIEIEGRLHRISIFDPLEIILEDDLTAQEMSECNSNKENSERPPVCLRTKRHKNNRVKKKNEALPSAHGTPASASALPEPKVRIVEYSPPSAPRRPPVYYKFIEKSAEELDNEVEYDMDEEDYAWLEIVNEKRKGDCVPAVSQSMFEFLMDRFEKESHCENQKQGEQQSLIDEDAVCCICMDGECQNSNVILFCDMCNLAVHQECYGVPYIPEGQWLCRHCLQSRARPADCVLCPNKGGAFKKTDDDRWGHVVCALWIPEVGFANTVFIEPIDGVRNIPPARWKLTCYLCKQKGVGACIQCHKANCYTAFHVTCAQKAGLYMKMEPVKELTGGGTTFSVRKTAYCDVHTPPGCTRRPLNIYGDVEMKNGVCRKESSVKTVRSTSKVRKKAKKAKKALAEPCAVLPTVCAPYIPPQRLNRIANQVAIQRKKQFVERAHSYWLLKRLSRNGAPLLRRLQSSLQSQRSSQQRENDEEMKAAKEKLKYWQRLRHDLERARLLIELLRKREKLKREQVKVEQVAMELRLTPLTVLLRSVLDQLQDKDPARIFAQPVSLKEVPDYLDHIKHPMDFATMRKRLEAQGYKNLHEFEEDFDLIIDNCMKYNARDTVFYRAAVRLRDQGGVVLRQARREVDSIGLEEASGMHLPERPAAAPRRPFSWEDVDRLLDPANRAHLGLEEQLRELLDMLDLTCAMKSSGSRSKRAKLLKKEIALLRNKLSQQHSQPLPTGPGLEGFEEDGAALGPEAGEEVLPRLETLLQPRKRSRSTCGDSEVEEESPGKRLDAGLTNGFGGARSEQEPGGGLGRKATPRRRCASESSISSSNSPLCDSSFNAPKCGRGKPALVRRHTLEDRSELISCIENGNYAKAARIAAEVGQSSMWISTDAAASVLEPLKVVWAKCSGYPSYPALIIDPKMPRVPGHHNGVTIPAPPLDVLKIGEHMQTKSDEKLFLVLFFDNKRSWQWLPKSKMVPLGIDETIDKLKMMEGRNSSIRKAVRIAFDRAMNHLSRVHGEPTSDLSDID

[2] = target: T2, Bromodomain and PHD finger-containing protein 3 (Homo sapiens, UniProt Q9ULD4)
T2 sequence (Q9ULD4 whole entry): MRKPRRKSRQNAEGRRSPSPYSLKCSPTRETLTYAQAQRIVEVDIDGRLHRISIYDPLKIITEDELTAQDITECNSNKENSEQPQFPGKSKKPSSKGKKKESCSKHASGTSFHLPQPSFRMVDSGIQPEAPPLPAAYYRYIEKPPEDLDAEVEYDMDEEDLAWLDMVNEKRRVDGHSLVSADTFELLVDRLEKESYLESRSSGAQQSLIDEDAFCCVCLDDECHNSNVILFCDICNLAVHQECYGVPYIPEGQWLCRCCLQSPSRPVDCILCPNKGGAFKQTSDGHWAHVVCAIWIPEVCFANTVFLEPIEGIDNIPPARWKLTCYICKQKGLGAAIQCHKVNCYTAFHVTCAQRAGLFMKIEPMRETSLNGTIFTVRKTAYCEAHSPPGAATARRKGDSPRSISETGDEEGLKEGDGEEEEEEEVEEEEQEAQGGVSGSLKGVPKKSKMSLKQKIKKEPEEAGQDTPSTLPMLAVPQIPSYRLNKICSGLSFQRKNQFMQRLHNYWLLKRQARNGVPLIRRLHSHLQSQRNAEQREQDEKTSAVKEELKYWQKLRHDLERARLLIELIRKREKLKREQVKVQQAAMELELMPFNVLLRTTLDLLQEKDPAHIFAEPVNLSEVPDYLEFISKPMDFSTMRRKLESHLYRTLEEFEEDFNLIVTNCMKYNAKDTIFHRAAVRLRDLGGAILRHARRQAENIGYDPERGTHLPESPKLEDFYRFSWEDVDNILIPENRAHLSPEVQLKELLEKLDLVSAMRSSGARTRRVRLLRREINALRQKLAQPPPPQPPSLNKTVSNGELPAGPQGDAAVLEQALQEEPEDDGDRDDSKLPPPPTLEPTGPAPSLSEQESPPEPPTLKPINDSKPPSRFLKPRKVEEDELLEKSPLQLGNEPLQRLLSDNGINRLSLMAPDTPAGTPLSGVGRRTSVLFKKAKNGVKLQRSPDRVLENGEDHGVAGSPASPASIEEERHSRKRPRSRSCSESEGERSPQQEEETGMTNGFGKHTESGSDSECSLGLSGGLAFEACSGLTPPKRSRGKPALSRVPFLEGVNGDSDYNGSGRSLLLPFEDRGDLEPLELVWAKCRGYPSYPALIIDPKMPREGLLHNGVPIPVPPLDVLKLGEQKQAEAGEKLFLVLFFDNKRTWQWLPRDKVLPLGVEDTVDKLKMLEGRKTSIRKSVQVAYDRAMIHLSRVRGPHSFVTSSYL

Peregrin = target: T3, Peregrin (Homo sapiens, UniProt P55201)
T3 sequence (P55201 whole entry): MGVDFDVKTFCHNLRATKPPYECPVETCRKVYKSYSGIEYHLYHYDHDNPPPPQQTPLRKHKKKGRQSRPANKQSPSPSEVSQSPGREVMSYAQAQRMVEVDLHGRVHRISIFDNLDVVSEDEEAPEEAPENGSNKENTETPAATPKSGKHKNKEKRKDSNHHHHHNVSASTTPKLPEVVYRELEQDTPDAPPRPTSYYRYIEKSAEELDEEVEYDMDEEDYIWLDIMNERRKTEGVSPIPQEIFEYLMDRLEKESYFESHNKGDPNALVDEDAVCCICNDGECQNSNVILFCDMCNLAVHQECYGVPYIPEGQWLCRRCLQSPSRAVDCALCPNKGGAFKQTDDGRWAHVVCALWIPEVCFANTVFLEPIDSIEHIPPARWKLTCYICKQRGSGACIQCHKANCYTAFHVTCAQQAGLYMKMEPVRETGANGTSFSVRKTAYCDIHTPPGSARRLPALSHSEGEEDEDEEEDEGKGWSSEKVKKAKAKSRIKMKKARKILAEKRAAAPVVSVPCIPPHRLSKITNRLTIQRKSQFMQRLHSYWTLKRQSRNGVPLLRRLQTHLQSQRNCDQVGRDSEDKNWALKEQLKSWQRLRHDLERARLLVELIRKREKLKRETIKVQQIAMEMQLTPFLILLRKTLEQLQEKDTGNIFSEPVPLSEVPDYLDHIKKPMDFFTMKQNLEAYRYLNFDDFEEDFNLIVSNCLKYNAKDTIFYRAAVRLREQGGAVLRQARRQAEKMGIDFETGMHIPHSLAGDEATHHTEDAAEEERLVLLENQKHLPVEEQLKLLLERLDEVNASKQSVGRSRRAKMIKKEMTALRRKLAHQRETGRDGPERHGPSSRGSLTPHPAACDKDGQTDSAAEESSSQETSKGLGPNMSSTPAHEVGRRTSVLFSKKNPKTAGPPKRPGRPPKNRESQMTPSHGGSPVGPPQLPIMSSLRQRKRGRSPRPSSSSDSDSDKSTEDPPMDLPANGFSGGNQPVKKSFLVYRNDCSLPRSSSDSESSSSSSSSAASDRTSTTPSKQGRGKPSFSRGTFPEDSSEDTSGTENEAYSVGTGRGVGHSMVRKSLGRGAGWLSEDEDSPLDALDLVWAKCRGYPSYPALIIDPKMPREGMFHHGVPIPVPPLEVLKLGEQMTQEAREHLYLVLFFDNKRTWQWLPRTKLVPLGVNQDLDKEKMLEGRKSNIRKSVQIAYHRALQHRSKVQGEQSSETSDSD

[3] = target: Protein-arginine deiminase type-4 (Homo sapiens, UniProt Q9UM07)
[4] = target: T4, Bromodomain-containing protein 9 (Homo sapiens, UniProt Q9H8M2)
T4 sequence (Q9H8M2 whole entry): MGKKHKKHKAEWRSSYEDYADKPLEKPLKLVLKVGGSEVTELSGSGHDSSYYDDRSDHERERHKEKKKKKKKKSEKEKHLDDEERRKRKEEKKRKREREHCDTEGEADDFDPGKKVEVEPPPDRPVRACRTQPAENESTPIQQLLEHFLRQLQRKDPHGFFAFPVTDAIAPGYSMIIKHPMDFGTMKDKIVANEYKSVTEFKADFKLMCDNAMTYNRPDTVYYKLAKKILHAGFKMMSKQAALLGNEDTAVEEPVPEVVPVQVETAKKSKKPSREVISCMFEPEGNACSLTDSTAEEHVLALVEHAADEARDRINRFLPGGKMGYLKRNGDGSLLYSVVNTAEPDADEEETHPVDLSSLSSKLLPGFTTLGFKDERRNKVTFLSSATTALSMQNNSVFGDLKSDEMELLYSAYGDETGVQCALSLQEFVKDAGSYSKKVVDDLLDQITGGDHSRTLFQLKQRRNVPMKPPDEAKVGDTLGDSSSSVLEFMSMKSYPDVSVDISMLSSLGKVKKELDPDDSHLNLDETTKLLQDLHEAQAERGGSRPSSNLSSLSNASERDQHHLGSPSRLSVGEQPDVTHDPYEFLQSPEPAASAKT

[5] = target: Chromatin remodeling regulator CECR2 (Homo sapiens, UniProt Q9BXF3)
[6] = target: Nucleosome-remodeling factor subunit BPTF (Homo sapiens, UniProt Q12830)
[7] = target: T5, Histone-lysine N-methyltransferase NSD3 (Homo sapiens, UniProt Q9BZ95)
T5 sequence (Q9BZ95 whole entry): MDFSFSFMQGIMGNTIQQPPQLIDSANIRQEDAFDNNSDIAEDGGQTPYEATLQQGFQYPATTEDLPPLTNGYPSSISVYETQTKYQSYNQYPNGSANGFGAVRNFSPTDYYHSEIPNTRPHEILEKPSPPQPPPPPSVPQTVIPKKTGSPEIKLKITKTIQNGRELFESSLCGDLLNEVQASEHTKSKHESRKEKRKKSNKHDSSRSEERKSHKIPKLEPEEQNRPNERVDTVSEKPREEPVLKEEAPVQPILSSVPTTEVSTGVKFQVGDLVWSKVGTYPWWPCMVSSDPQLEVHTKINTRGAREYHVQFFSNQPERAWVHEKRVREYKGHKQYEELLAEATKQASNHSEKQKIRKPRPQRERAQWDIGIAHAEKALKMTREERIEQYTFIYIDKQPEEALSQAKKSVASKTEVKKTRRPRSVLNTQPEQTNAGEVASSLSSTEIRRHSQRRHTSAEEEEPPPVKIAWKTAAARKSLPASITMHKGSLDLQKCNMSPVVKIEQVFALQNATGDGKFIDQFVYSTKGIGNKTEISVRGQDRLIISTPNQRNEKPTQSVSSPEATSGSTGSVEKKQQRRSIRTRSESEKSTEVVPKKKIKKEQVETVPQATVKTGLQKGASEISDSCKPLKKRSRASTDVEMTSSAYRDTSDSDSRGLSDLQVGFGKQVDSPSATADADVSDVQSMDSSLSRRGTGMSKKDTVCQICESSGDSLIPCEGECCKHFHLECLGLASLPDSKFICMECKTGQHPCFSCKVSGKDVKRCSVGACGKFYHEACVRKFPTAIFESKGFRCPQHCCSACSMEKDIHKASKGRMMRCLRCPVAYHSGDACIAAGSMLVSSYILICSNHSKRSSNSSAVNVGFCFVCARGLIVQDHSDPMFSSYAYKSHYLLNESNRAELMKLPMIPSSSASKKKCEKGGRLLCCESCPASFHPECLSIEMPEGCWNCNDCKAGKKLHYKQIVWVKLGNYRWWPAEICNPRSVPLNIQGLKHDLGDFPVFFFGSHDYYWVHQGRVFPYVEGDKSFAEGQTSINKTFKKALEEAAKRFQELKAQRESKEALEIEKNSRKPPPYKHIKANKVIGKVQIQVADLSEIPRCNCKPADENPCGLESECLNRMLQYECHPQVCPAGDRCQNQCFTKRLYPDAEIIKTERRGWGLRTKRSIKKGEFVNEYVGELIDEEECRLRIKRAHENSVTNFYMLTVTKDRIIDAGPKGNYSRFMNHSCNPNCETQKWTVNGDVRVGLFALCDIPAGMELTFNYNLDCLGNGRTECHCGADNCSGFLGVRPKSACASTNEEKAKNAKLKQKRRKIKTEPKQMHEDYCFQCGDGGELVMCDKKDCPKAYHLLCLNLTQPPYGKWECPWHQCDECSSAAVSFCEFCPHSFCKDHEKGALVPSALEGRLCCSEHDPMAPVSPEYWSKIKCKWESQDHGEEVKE

[8] = target: Dual specificity protein kinase CLK1 (Homo sapiens, UniProt P49759)
[9] = target: Dual specificity protein kinase CLK2 (Homo sapiens, UniProt P49760)
[10] = target: Dual specificity protein kinase CLK4 (Homo sapiens, UniProt Q9HAZ1)
SRSF protein kinase 2 = SRSF protein kinase 2 (Homo sapiens, UniProt P78362)
SRSF protein kinase 1 = SRSF protein kinase 1 (Homo sapiens, UniProt Q96SB4)
Sequence of SRSF protein kinase 1 (Q96SB4 whole entry): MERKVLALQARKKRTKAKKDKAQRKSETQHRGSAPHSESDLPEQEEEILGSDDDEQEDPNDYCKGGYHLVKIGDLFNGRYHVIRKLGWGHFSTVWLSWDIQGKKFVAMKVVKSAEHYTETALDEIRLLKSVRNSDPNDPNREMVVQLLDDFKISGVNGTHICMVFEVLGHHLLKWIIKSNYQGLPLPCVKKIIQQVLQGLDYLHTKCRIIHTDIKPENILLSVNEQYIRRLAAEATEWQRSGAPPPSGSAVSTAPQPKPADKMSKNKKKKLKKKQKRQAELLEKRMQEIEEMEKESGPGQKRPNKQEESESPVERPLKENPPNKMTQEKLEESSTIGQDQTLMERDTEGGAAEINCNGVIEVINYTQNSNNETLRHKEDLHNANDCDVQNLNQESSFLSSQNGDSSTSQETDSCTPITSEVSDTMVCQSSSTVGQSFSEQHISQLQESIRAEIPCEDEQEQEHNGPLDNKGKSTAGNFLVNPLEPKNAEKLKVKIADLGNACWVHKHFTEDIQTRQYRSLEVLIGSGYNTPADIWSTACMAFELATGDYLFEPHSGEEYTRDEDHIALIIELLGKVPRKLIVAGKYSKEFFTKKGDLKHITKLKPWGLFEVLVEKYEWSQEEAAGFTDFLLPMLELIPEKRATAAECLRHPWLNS

Sequence of Chromatin remodeling regulator CECR2 (Q9BXF3 whole entry): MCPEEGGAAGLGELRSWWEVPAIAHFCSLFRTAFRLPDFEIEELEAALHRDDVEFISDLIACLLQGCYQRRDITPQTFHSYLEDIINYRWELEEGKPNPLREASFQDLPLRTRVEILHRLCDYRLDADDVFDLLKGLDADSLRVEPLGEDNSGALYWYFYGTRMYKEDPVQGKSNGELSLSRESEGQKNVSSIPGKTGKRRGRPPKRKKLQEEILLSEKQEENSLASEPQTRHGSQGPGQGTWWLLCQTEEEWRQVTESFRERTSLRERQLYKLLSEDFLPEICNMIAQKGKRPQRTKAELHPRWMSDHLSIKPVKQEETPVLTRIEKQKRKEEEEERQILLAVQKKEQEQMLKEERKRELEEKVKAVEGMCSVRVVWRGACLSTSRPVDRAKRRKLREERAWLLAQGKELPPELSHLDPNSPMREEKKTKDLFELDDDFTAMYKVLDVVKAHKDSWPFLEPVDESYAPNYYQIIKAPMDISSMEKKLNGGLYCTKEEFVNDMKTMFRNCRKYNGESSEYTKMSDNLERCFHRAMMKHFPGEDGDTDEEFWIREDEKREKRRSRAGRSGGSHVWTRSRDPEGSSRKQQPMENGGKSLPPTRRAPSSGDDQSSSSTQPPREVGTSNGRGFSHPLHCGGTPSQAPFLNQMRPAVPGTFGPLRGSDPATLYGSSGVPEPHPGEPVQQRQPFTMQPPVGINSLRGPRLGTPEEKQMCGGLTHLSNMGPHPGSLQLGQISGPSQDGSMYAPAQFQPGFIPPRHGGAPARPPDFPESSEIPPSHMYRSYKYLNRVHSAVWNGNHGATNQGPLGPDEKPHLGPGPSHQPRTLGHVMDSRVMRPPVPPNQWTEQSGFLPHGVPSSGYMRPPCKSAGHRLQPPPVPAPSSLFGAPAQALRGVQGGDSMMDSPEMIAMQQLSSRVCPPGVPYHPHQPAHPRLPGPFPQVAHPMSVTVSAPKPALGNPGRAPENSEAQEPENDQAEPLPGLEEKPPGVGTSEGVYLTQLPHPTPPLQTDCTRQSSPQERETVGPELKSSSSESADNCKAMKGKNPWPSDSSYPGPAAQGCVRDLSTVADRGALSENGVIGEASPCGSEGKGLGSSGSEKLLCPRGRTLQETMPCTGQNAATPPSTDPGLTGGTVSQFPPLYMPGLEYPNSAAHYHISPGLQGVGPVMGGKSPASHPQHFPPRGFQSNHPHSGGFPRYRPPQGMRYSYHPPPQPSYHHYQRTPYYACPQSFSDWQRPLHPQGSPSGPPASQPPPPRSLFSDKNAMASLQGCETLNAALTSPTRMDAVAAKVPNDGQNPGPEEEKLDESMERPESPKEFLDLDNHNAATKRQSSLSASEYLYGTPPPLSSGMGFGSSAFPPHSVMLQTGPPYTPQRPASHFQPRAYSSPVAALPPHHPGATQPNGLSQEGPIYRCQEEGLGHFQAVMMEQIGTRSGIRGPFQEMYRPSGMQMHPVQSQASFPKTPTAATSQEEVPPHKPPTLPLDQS
Sequence of CDK8/Cyclin C (P49336 whole entry): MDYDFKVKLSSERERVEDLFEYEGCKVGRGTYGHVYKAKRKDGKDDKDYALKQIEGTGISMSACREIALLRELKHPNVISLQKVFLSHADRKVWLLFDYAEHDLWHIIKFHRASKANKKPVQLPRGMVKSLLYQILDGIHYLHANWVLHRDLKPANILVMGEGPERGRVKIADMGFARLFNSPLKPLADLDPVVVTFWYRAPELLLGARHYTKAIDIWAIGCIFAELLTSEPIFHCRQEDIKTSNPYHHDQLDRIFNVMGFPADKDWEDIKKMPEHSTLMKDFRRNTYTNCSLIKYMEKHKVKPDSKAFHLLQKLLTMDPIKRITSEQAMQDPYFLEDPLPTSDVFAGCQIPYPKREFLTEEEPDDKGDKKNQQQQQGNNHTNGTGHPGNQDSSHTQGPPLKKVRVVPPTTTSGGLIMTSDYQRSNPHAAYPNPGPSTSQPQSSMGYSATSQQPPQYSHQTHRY
Sequence of CDK8/Cyclin C (P24863 whole entry, further chain): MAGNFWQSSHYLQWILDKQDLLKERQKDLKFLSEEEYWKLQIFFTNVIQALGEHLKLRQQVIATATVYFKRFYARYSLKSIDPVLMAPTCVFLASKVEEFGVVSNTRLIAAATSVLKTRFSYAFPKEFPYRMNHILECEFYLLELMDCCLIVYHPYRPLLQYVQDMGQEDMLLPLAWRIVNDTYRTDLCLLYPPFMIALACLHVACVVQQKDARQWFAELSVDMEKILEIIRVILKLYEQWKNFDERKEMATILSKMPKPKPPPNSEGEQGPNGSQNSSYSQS
Sequence of Dual specificity protein kinase CLK1 (P49759 whole entry): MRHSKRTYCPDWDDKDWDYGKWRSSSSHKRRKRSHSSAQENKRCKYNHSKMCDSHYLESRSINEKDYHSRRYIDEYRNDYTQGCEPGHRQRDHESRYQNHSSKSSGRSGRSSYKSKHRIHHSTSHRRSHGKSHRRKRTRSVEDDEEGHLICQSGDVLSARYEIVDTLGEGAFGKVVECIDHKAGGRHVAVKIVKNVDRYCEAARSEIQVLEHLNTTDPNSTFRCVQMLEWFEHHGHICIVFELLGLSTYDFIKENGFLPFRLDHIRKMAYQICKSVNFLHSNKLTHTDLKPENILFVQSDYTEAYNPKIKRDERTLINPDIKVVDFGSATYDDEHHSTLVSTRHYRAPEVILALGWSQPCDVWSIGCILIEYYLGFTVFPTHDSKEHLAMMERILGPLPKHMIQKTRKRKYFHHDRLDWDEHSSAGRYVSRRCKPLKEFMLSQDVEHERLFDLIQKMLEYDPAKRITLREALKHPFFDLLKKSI
Sequence of Protein-arginine deiminase type-4 (Q9UM07 whole entry): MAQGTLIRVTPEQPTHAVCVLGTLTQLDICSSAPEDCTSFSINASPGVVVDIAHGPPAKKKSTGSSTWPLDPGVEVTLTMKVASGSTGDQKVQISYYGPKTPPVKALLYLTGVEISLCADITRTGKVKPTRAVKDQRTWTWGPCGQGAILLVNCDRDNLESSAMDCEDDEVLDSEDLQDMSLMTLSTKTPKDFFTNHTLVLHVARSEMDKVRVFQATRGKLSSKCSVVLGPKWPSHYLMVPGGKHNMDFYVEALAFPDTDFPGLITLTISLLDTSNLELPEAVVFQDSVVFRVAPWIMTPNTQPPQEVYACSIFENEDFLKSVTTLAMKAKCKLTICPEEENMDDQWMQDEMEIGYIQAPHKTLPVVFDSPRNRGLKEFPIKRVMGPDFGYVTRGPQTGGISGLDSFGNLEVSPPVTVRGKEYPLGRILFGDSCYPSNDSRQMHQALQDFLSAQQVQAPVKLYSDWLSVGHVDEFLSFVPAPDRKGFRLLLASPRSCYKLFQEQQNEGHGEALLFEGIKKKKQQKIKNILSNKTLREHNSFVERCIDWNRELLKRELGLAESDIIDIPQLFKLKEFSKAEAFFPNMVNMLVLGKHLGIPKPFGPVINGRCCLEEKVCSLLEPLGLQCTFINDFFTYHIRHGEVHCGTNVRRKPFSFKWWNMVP
Sequence of Dual specificity protein kinase CLK4 (Q9HAZ1 whole entry): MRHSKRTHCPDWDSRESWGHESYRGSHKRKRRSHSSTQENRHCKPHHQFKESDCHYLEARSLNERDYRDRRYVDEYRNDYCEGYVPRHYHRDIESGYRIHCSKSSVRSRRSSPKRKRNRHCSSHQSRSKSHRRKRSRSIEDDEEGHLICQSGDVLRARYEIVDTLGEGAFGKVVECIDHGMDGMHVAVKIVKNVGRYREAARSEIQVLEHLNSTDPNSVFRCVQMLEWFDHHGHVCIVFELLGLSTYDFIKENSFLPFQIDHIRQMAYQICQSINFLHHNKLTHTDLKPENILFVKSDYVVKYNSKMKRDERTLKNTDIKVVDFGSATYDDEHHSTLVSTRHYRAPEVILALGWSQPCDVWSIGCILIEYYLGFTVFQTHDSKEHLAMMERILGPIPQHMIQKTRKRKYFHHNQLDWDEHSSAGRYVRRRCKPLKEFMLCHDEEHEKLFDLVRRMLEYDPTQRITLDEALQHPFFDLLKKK
Sequence of Dual specificity protein kinase CLK2 (P49760 whole entry): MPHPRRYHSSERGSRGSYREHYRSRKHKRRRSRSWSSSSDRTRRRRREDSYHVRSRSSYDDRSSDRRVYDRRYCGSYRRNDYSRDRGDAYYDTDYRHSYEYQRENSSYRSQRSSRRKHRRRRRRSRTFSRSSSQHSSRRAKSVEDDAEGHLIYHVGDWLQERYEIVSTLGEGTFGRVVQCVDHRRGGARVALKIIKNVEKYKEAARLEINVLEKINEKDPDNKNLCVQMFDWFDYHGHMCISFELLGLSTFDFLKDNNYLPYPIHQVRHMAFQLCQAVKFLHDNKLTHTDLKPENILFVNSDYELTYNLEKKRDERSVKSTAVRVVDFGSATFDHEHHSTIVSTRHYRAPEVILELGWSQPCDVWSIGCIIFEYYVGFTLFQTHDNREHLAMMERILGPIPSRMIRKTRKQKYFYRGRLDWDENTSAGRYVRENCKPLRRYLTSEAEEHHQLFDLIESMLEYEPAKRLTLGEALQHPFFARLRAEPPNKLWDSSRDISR

SMILES: CN(C)C(=O)Cn1cc(-c2ccc(-c3nnc4ccccn34)cc2)cn1
IC50 (CDK8/Cyclin C): 0.671 µM

SMILES: CCc1cc2cc(NS(=O)(=O)c3ccc(C#N)cc3)ccc2n(CC)c1=O
IC50 [1]: > 100 µM
IC50 [2]: > 100 µM
IC50 (Peregrin): > 100 µM

SMILES: CC(=O)c1cc(-c2ccccc2OCC2CC2)c2ncccn12
Kd [4]: > 20 µM

SMILES: CN(C)CCCOc1ccc(-c2cc(NCCCn3cccn3)nc(S(C)(=O)=O)n2)cc1
IC50 [5]: 30.3 µM
IC50 [6]: 30.3 µM

SMILES: CN(c1ncccc1CNc1ccnc(-c2cc3cc(Cl)ccc3[nH]2)n1)S(C)(=O)=O
IC50 (SRSF protein kinase 2): > 10 µM
IC50 (SRSF protein kinase 1): > 10 µM

Second part, the molecule after the results:

IC50 [3]: > 100 µM
SMILES: CCn1c(-c2nc3cc(C(=O)N4CCCC(N)C4)ccc3n2C)cc2ccccc21 (centres undefined)

IC50 [7]: 120 µM
SMILES: Cc1cc(CN)cc(C)c1-c1ncn(C)c1-c1cncn1C

IC50 [8]: > 10 µM
IC50 [9]: > 10 µM
IC50 [10]: > 10 µM
SMILES: COc1cc(Nc2nc(C)cc(-c3cnn4nc(OC)ccc34)n2)cc(C(F)(F)F)c1
